From publication PMC5944969, “Characterization of a nontypeable Haemophilus influenzae thermonuclease” (PLoS ONE, 2018)

What was measured:
NTHi Nuc [1] = biological target: T1, NTHi Nuc (Haemophilus influenzae, UniProt Q57519); assay: FRET nuclease assay, Cy3/BHQ2 single-stranded 30-mer DNA; type: biochemical; conditions: competitive (stated); pdTp 0.015 and 0.03 nM; enzyme 0.035 nM; 2 µM FRET substrate; 26 °C
T1 construct: gene HI_1296; N-terminal 6xHis tag (pET151/D-TOPO) cleaved with TEV protease; E. coli BL21*(DE3)

NTHi Nuc [2] = biological target: T1, NTHi Nuc; assay: thermal unfolding by dynamic light scattering; type: binding; conditions: pH 7; excess pdTp; onset temperature with ligand, not a shift; ramp 1.0 °C/min
Source text: thermal unfolding by dynamic light scattering on NTHi Nuc

T1 sequence (Q57519 21-178): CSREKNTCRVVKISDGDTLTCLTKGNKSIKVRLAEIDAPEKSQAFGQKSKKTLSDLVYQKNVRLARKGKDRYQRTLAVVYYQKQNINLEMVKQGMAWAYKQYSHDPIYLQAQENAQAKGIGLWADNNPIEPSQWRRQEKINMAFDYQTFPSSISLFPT

Cc1cn([C@H]2C[C@H](OP(=O)(O)O)[C@@H](COP(=O)(O)O)O2)c(=O)[nH]c1=O [thymidine 3,5-bisphosphate]
FRET nuclease assay, Cy3/BHQ2 single-stranded 30-mer DNA (NTHi Nuc [1]): Half and equimolar concentrations of pdTp impacted initial rates of endonuclease activity
Tonset (NTHi Nuc [2]): 48.1 ± 1.45 °C
